# Measured values as given in PubChem BioAssay (NCI).
#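 These data come from cells grown in 96-well plates and exposed to compound for 48 hours at five concentrations. GI50 is the concentration that inhibits growth by half. At the TGI there is no net growth.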
# Assays:
# Assay in all cases: NCI-60 cell line screen, 48 h
# 786-0 renal = tested on: 786-0 renal
# A498 renal = tested on: A498 renal
# A549 NSCLC = tested on: A549 NSCLC
# ACHN renal = tested on: ACHN renal
# BT-549 breast = tested on: BT-549 breast
# CAKI-1 renal = tested on: CAKI-1 renal
# CCRF-CEM leukemia = tested on: CCRF-CEM leukemia
# COLO 205 colon = tested on: COLO 205 colon
# DU-145 prostate = tested on: DU-145 prostate
# EKVX NSCLC = tested on: EKVX NSCLC
# HCC-2998 colon = tested on: HCC-2998 colon
# HCT-116 colon = tested on: HCT-116 colon
# HCT-15 colon = tested on: HCT-15 colon
# HL-60(TB) leukemia = tested on: HL-60(TB) leukemia
# HOP-62 NSCLC = tested on: HOP-62 NSCLC
# HOP-92 NSCLC = tested on: HOP-92 NSCLC
# HS 578T breast = tested on: HS 578T breast
# HT29 colon = tested on: HT29 colon
# IGROV1 ovarian = tested on: IGROV1 ovarian
# K-562 leukemia = tested on: K-562 leukemia
# KM12 colon = tested on: KM12 colon
# LOX IMVI melanoma = tested on: LOX IMVI melanoma
# M14 melanoma = tested on: M14 melanoma
# MALME-3M melanoma = tested on: MALME-3M melanoma
# MCF7 breast = tested on: MCF7 breast
# MDA-MB-231 breast = tested on: MDA-MB-231 breast
# MDA-MB-435 = tested on: MDA-MB-435
# MOLT-4 leukemia = tested on: MOLT-4 leukemia
# NCI-H226 lung = tested on: NCI-H226 lung
# NCI-H23 lung = tested on: NCI-H23 lung
# NCI-H460 lung = tested on: NCI-H460 lung
# NCI-H522 lung = tested on: NCI-H522 lung
# NCI/ADR-RES ovarian = tested on: NCI/ADR-RES ovarian
# OVCAR-3 ovarian = tested on: OVCAR-3 ovarian
# OVCAR-4 ovarian = tested on: OVCAR-4 ovarian
# OVCAR-5 ovarian = tested on: OVCAR-5 ovarian
# OVCAR-8 ovarian = tested on: OVCAR-8 ovarian
# PC-3 prostate = tested on: PC-3 prostate
# RPMI-8226 leukemia = tested on: RPMI-8226 leukemia
# SF-268 CNS = tested on: SF-268 CNS
# SF-295 CNS = tested on: SF-295 CNS
# SF-539 CNS = tested on: SF-539 CNS
# SK-MEL-2 melanoma = tested on: SK-MEL-2 melanoma
# SK-MEL-28 melanoma = tested on: SK-MEL-28 melanoma
# SK-MEL-5 melanoma = tested on: SK-MEL-5 melanoma
# SK-OV-3 ovarian = tested on: SK-OV-3 ovarian
# SN12C renal = tested on: SN12C renal
# SNB-19 CNS = tested on: SNB-19 CNS
# SNB-75 CNS = tested on: SNB-75 CNS
# SR leukemia = tested on: SR leukemia
# SW-620 colon = tested on: SW-620 colon
# TK-10 renal = tested on: TK-10 renal
# U251 CNS = tested on: U251 CNS
# UACC-257 melanoma = tested on: UACC-257 melanoma
# UACC-62 melanoma = tested on: UACC-62 melanoma
# UO-31 renal = tested on: UO-31 renal
smiles,measurement,setting,value
CCN1C(=O)N(CC)C2SC(N/N=C/c3ccc(F)cc3)=NC21 (centres undefined),GI50,786-0 renal,628 nM
same,TGI,786-0 renal,30.1 µM
same,GI50,A498 renal,295 nM
same,TGI,A498 renal,860 nM
same,GI50,A549 NSCLC,611 nM
same,TGI,A549 NSCLC,> 100 µM
same,GI50,ACHN renal,728 nM
same,TGI,ACHN renal,> 100 µM
same,GI50,BT-549 breast,496 nM
same,TGI,BT-549 breast,2870 nM
same,GI50,CAKI-1 renal,435 nM
same,TGI,CAKI-1 renal,> 100 µM
same,GI50,CCRF-CEM leukemia,413 nM
same,TGI,CCRF-CEM leukemia,> 100 µM
same,GI50,COLO 205 colon,308 nM
same,TGI,COLO 205 colon,1100 nM
same,GI50,DU-145 prostate,498 nM
same,TGI,DU-145 prostate,> 100 µM
same,GI50,EKVX NSCLC,695 nM
same,TGI,EKVX NSCLC,> 100 µM
same,GI50,HCC-2998 colon,823 nM
same,TGI,HCC-2998 colon,> 100 µM
same,GI50,HCT-116 colon,404 nM
same,TGI,HCT-116 colon,> 33.9 µM
same,GI50,HCT-15 colon,429 nM
same,TGI,HCT-15 colon,> 100 µM
same,GI50,HL-60(TB) leukemia,268 nM
same,TGI,HL-60(TB) leukemia,927 nM
same,GI50,HOP-62 NSCLC,556 nM
same,TGI,HOP-62 NSCLC,> 100 µM
same,GI50,HOP-92 NSCLC,1160 nM
same,TGI,HOP-92 NSCLC,> 23.3 µM
same,GI50,HS 578T breast,363 nM
same,GI50,HT29 colon,354 nM
same,TGI,HT29 colon,4.46 µM
same,GI50,IGROV1 ovarian,765 nM
same,TGI,IGROV1 ovarian,> 100 µM
same,GI50,K-562 leukemia,361 nM
same,TGI,K-562 leukemia,> 100 µM
same,GI50,KM12 colon,415 nM
same,TGI,KM12 colon,> 62.2 µM
same,GI50,LOX IMVI melanoma,596 nM
same,TGI,LOX IMVI melanoma,> 100 µM
same,GI50,M14 melanoma,296 nM
same,TGI,M14 melanoma,14.4 µM
same,GI50,MALME-3M melanoma,660 nM
same,TGI,MALME-3M melanoma,> 100 µM
same,GI50,MCF7 breast,369 nM
same,TGI,MCF7 breast,> 100 µM
same,GI50,MDA-MB-231 breast,955 nM
same,TGI,MDA-MB-231 breast,> 100 µM
same,GI50,MDA-MB-435,174 nM
same,TGI,MDA-MB-435,408 nM
same,GI50,MOLT-4 leukemia,479 nM
same,TGI,MOLT-4 leukemia,> 100 µM
same,GI50,NCI-H226 lung,942 nM
same,TGI,NCI-H226 lung,> 100 µM
same,GI50,NCI-H23 lung,539 nM
same,TGI,NCI-H23 lung,> 100 µM
same,GI50,NCI-H460 lung,362 nM
same,GI50,NCI-H522 lung,250 nM
same,TGI,NCI-H522 lung,762 nM
same,GI50,NCI/ADR-RES ovarian,428 nM
same,TGI,NCI/ADR-RES ovarian,> 100 µM
same,GI50,OVCAR-3 ovarian,370 nM
same,TGI,OVCAR-3 ovarian,2040 nM
same,GI50,OVCAR-4 ovarian,22.4 µM
same,TGI,OVCAR-4 ovarian,> 100 µM
same,GI50,OVCAR-5 ovarian,890 nM
same,TGI,OVCAR-5 ovarian,> 100 µM
same,GI50,OVCAR-8 ovarian,495 nM
same,TGI,OVCAR-8 ovarian,> 24 µM
same,GI50,PC-3 prostate,436 nM
same,TGI,PC-3 prostate,> 52.3 µM
same,GI50,RPMI-8226 leukemia,373 nM
same,TGI,RPMI-8226 leukemia,> 100 µM
same,GI50,SF-268 CNS,2620 nM
same,TGI,SF-268 CNS,> 100 µM
same,GI50,SF-295 CNS,348 nM
same,TGI,SF-295 CNS,> 100 µM
same,GI50,SF-539 CNS,321 nM
same,TGI,SF-539 CNS,1430 nM
same,GI50,SK-MEL-2 melanoma,507 nM
same,TGI,SK-MEL-2 melanoma,> 100 µM
same,GI50,SK-MEL-28 melanoma,> 30 µM
same,TGI,SK-MEL-28 melanoma,> 100 µM
same,GI50,SK-MEL-5 melanoma,601 nM
same,TGI,SK-MEL-5 melanoma,> 42.2 µM
same,GI50,SK-OV-3 ovarian,662 nM
same,TGI,SK-OV-3 ovarian,> 100 µM
same,GI50,SN12C renal,617 nM
same,TGI,SN12C renal,> 100 µM
same,GI50,SNB-19 CNS,504 nM
same,TGI,SNB-19 CNS,> 100 µM
same,GI50,SNB-75 CNS,252 nM
same,GI50,SR leukemia,221 nM
same,TGI,SR leukemia,> 100 µM
same,GI50,SW-620 colon,374 nM
same,TGI,SW-620 colon,> 100 µM
same,GI50,TK-10 renal,5.2 µM
same,TGI,TK-10 renal,> 100 µM
same,GI50,U251 CNS,406 nM
same,TGI,U251 CNS,> 74.3 µM
same,GI50,UACC-257 melanoma,1260 nM
same,TGI,UACC-257 melanoma,> 100 µM
same,GI50,UACC-62 melanoma,437 nM
same,TGI,UACC-62 melanoma,> 100 µM
same,GI50,UO-31 renal,631 nM
same,TGI,UO-31 renal,> 100 µM
